According to patent US12338256B2, “Aza-tetracyclic oxazepine compounds and uses thereof” (Genentech, Inc., priority 2022, dated 2025):

Assays:
[1] = test system: HPAC (homozygous mutant KRAS G12D human pancreatic cell line); assay: KRAS 3D-Cell Proliferation Assay, HPAC (Example 503); format: cell-based; conditions: Homo sapiens, HPAC, 168 h, HPAC 3D culture, 7 days, CellTiter-Glo 3D; read-out: Prolif HPAC 3D ATP IC50
How it was run: (§1)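 IC50 values derive from 4-parameter Hill fits of normalized luminescence, where DMSO sets 0% and 1 μM staurosporine 100% inhibition. 3D cultures in RPMI-1640 with 10% fetal bovine serum were exposed to compound for 7 days before CellTiter-Glo 3D lysis.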

[2] = test system: H1975 (KRAS wild type human lung adenocarcinoma cell line); assay: KRAS 3D-Cell Proliferation Assay, H1975 (Example 503); format: cell-based; conditions: Homo sapiens, NCI-H1975, 168 h, H1975 3D culture, 7 days, CellTiter-Glo 3D; read-out: Prolif H1975 3D ATP IC50
How it was run: as §1

SMILES | IC50 [1] | IC50 [2]
Cc1nc(N)cc(-c2nc3c4c(nc(OCC5(CN6C[C@@H](C)O[C@@H](C)C6)CC5)nc4c2F)N2C[C@H]4CC[C@H](N4)[C@H]2[C@H](C)O3)c1C(F)(F)F [Compound 218, 4-((5S,5aS,6S,9R)-12-((1-(((2R,6S)-2,6-Dimethylmorpholino)methyl)cyclopropyl)methoxy)-1-fluoro-5-methyl-5a,6,7,8,9,10-hexahydro-5H-4-oxa-3,10a,11,13,14-pentaaza-6,9-methanonaphtho[1,8-ab]heptalen-2-yl)-6-methyl-5-(trifluoromethyl)pyridin-2-amine] | 1.36 nM | 384 nM
Cc1nc(N)c(F)c(-c2nc3c4c(nc(OCC5(CN6CCOCC6)CC5)nc4c2F)N2C[C@H]4CC[C@H](N4)[C@H]2[C@H](C)O3)c1C(F)(F)F [Compound 219, 3-Fluoro-4-((5S,5aS,6S,9R)-1-fluoro-5-methyl-12-((1-(morpholinomethyl)cyclopropyl)methoxy)-5a,6,7,8,9,10-hexahydro-5H-4-oxa-3,10a,11,13,14-pentaaza-6,9-methanonaphtho[1,8-ab]heptalen-2-yl)-6-methyl-5-(trifluoromethyl)pyridin-2-amine] | 3.67 nM | 8280 nM
Cc1nc(N)c(F)c(-c2nc3c4c(nc(OCC56CCN5CC(F)(F)C6)nc4c2F)N2C[C@H]4CC[C@H](N4)[C@H]2[C@H](C)O3)c1C(F)(F)F (stereo partly drawn) [Compound 220, 4-((5S,5aS,6S,9R)-12-((3,3-Difluoro-1-azabicyclo[3.2.0]heptan-5-yl)methoxy)-1-fluoro-5-methyl-5a,6,7,8,9,10-hexahydro-5H-4-oxa-3,10a,11,13,14-pentaaza-6,9-methanonaphtho[1,8-ab]heptalene-2-yl)-3-fluoro-6-methyl-5-(trifluoromethyl)pyridin-2-amine] | 11.8 nM | 20000 nM
Cc1nc(N)c(F)c(-c2nc3c4c(nc(OCC5(CN6C[C@@H]7C[C@H]6CO7)CC5)nc4c2F)N2C[C@H]4CC[C@H](N4)[C@H]2[C@H](C)O3)c1C(F)(F)F [Compound 222, 4-((5S,5aS,6S,9R)-12-((1-(((1S,4S)-2-Oxa-5-azabicyclo[2.2.1]heptan-5-yl)methyl)cyclopropyl)methoxy)-1-fluoro-5-methyl-5a,6,7,8,9,10-hexahydro-5H-4-oxa-3,10a,11,13,14-pentaaza-6,9-methanonaphtho[1,8-ab]heptalene-2-yl)-3-fluoro-6-methyl-5-(trifluoromethyl)pyridin-2-amine] | 5.76 nM | 1480 nM
Cc1nc(N)c(F)c(-c2nc3c4c(nc(OCC5(CN6C[C@H]7C[C@@H]6CO7)CC5)nc4c2F)N2C[C@H]4CC[C@H](N4)[C@H]2[C@H](C)O3)c1C(F)(F)F [Compound 223, 4-((5S,5aS,6S,9R)-12-((1-(((1R,4R)-2-Oxa-5-azabicyclo[2.2.1]heptan-5-yl)methyl)cyclopropyl)methoxy)-1-fluoro-5-methyl-5a,6,7,8,9,10-hexahydro-5H-4-oxa-3,10a,11,13,14-pentaaza-6,9-methanonaphtho[1,8-ab]heptalene-2-yl)-3-fluoro-6-methyl-5-(trifluoromethyl)pyridin-2-amine] | 6.46 nM | 1230 nM
Cc1cc(N)c(F)c(-c2nc3c4c(nc(OC[C@@]56CCCN5CC5(CC5(F)F)C6)nc4c2F)N2C[C@H]4CC[C@H](N4)[C@H]2[C@H](C)O3)c1C(F)(F)F (stereo partly drawn) [Compound 227, 3-((5S,5aS,6S,9R)-12-(((7a′S)-2,2-Difluorodihydro-1′H,3′H-spiro[cyclopropane-1,2′-pyrrolizin]-7a′(5′H)-yl)methoxy)-1-fluoro-5-methyl-5a,6,7,8,9,10-hexahydro-5H-4-oxa-3,10a,11,13,14-pentaaza[6,9]methanonaphtho[1,8-ab]heptalene-2-yl)-2-fluoro-5-methyl-4-(trifluoromethyl)aniline] | 0.516 nM | 679 nM
